Test results reported in patent US4716175A, “Saturated fatty acid amides as inhibitors of acyl-CoA:cholesterol acyltransferase” (Warner-Lambert Company, priority 1987, dated 1987).

What was measured:
[1] = molecular target: T1, acyl-CoA:cholesterol acyltransferase (ACAT) (Oryctolagus cuniculus, UniProt G1SFD9); assay: in vitro inhibition of ACAT (cholesterol esterification by radio-labeled oleic acid, rabbit intestinal microsomes); assay type: biochemical
T1 construct: tissue preparation containing rabbit intestinal microsomes; from tissue; host or cells: rabbit intestinal microsomes
T1 sequence (G1SFD9 1-524): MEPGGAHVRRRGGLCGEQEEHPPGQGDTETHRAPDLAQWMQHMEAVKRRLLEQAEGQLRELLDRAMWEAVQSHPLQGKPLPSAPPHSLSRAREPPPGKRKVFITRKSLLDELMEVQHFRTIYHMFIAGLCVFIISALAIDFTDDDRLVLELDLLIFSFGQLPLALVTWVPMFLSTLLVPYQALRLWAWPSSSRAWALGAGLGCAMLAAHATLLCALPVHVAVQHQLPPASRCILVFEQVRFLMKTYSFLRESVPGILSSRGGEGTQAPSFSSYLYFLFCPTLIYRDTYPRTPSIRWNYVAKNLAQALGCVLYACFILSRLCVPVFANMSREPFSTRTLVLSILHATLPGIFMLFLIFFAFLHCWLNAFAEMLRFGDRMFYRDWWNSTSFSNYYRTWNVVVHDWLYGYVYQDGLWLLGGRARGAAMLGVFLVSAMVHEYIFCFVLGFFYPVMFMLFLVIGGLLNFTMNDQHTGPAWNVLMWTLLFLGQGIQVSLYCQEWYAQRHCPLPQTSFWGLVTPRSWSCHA
Description: The test assesses the ability of a compound to inhibit the acylation of cholesterol by oleic acid by measuring the amount of radio-labeled cholesterol oleate formed from radio-labeled oleic acid in a tissue preparation containing rabbit intestinal microsomes.

[2] = tested on: serum cholesterol; assay: cholesterol-fed rabbit test; assay type: in vivo, male, New Zealand white rabbits; details: oral 50 mg/kg thirty minutes prior to each meal for seven days, serum cholesterol three hours after last meal
Description: In the cholestrol-fed rabbit test, male, New Zealand white rabbits weighing approximately 1 kg were fed a normal diet 40 g per day of rabbit chow (Purina NO. 5321, Ralston Purina Co., 711 West Fuesser Road, Mascoutah, Ill., 62224, USA). After six days on this diet, the rabbits were fed 50 g per day for three days of a cholsterol-enriched diet consisting of one part of a cholesterol-containing chow (Purina Catalog No. 841206WLI, 0.25% cholesterol) and two parts of normal chow. Next, the rabbits were fed 60 g per day for four days of a cholsterol-enriched diet consisting of two parts of a cholesterol-containing chow (Purina Catalog No. 841206WLI, 0.25% cholesterol) and one part of normal chow.
After this meal adaptation and cholesterol loading period, the test compounds of this invention were administered to the test animals in oral doses of 50 mg/kg of body weight thirty minutes prior to each meal for seven days. Control animals were administered vehicle only.
The animals were sacrificed three hours after their last meal in the postabsorptive state. Serum cholesterol levels were determined for each animal, and the data appear in Table 2 expressed as percent change in serum cholesterol level compared to control.

[3] = tested on: total cholesterol; assay: cholesterol-fed rat test; assay type: in vivo, male, Sprague-Dawley rats; details: drug admixed in diet with 5.5% peanut oil, 1.5% cholesterol and 0.3% cholic acid, one week, nonfasted
Description: In the cholesterol-fed rat test, male, Sprague-Dawley rats (approximately 200 g body weight) were randomly divided into groups and provided ad libitum a regular rat chow diet (Purina No. 5002) supplemented with 5.5% peanut oil, 1.5% cholesterol and 0.3% cholic acid, with or without drug admixed at the indicated levels (w/w). After one week, the animals (nonfasted) were etherized and blood was taken from the heart into EDTA (0.14% final concentration) to measure total cholesterol using the Abbott VP Analyzer.

Structure (SMILES) | IC50 [1] [nM] | Percent Reduction in Cholesterol, Rabbit (percent change in serum cholesterol level compared to control) [2] [%] | Percent Reduction in Cholesterol, Rat [3] [%]
CCCCCCCC/C=C\CCCCCCCCC(C)(C)C(=O)Nc1c(OC)cc(OC)cc1OC [(Z)-2,2-Dimethyl-N-(2,4,6-trimethoxyphenyl)-11-eicosenamide] | 110 |  | 
CCCCCCCCCCCCC(CC)C(=O)Nc1c(OC)cc(OC)cc1OC (centres unmarked) [2-Ethyl-N-(2,4,6-trimethoxyphenyl)tetradecanamide] | 50 |  | 
CCCCCCCCCCC(C)(C)C(=O)Nc1c(OC)ncnc1OC [N-(4,6-Dimethoxy-5-pyrimidinyl)-2,2-dimethyldodecanamide] | 230 |  | 
CCCCCCCCCCCCC(C)C(=O)Nc1c(OC)cc(OC)cc1OC (centres unmarked) [2-Methyl-N-(2,4,6-trimethoxyphenyl)tetradecanamide] |  | -45 | -52
CCCCCCCC/C=C\CCCCCCCCC(C)(C)C(=O)Nc1c(C)cccc1OC [(Z)-N-(2-Methoxy-6-methylphenyl)-2,2-dimethyl-11-eicosenamide] | 680 |  | 
CCCCCCCC/C=C\CCCCCCC(C)C(=O)Nc1c(OC)cc(OC)cc1OC (centres unmarked) [(Z)-2-methyl-N-(2,4,6-trimethoxyphenyl)-9-octadecenamide] | 34 |  | 
CCCCCCCCCCC(C)C(=O)NC(C)c1ccccn1 (centres unmarked) [2-Methyl-N-[1-(2-pyridinyl)ethyl]dodecanamide] | 3300 |  | 
CCCCCCCCCCC(C)(C)C(=O)Nc1c(OC)cc(OC)cc1OC [2,2-Dimethyl-N-(2,4,6-trimethoxyphenyl)dodecanamide] |  | -67 | -54
CCCCCCCC/C=C\CCCCCCCCC(C)(C)C(=O)Nc1c(OC)ncnc1OC [(Z)-N-(4,6-dimethoxy-5-pyrimidinyl)-2,2-dimethyl-11-eicosenamide] | 780 |  | 
CCCCCCCCCCCCC(CC)C(=O)Nc1c(OC)ncnc1OC (centres unmarked) [N-(4,6-Dimethoxy-5-pyrimidinyl)-2-ethyltetradecanamide] | 260 |  | 
CCCCCCCCCCCCC(CC)C(=O)NC(C)c1ccccn1 (centres unmarked) [2-ethyl-N-[1-(2-pyridinyl)ethyl]tetradecanamide] | 700 |  | 
CCCCCCCCCCC(C)(C)C(=O)Nc1c(C)cccc1OCC [N-(2-Ethoxy-6-methylphenyl)-2,2-dimethyl-dodecanamide] | 230 |  | 
CCCCCCCCCCC(Cc1ccccc1)C(=O)NC(C)c1ccccn1 (stereo not drawn) [α-Decyl-N-[1-(2-pyridinyl)ethyl]benzenepropanamide] | 7000 |  | 
CCCCCCCCCCC(CCC)C(=O)NC(C)c1ccccn1 (centres unmarked) [2-Propyl-N-[1-(2-pyridinyl)ethyl]dodecanamide] | 3700 |  | 
CCCCCCCCCCCCC(C)(C)C(=O)Nc1c(OC)ncnc1OC [N-(4,6-dimethoxy-5-pyrimidinyl)-2,2-dimethyltetradecanamide] | 1300 |  | 
CCCCCCCCCCC(CC)C(=O)NC(C)c1ccccn1 (centres unmarked) [2-Ethyl-N-[1-(2-pyridinyl)ethyl]dodecanamide] | 1600 |  | 
CCCCCCCCCCCCCCC(C)C(=O)NC(C)c1ccccn1 (centres unmarked) [2-methyl-N-[1-(2-pyridinyl)ethyl]hexadecanamide] | 1400 |  | 
CCCCCCCCCCCCCCC(C)(C)C(=O)NC(C)c1ccccn1 (centres unmarked) [2,2-Dimethyl-N-[1-(2-pyridinyl)ethyl]hexadecanamide] | 700 |  | 
CCCCCCCCCCC1(C(=O)Nc2c(OC)cc(OC)cc2OC)CCCC1 [1-Decyl-N-(2,4,6-trimethoxyphenyl)cyclopentanecarboxamide] | 7 |  | -52
CCCCCCCCCCCCC(C)C(=O)Nc1c(OC)ncnc1OC (centres unmarked) [N-(4,6-dimethoxy-5-pyrimidinyl)-2-methyltetradecanamide] | 400 | -29 | 
CCCCCCCCCCCCC(C)C(=O)NC(C)c1ccccn1 (centres unmarked) [2-Methyl-N-[1-(2-pyridinyl)ethyl]tetradecanamide] | 800 |  | 
CCCCCCCCCCCCC(C)C(=O)Nc1c(OCC)ncnc1OCC (centres unmarked) [N-(4,6-Diethoxy-5-pyrimidinyl)-2-methyltetradecanamide] | 500 |  | 
